In assay [1] the target is IKKε (Homo sapiens (Human), UniProt Q14164). As to the kind of experiment: IKKε TR-FRET enzymatic assay. The class given is biochemical. The note with it: read-out: IKKe IC50. (Time-resolved FRET reads energy transfer from a long-lived donor to a nearby acceptor.)
The target in assay [2] is hJAK2 (Homo sapiens (Human), UniProt O60674). As to the kind of experiment: hJAK2 LANCE TR-FRET enzymatic assay. The class given is biochemical. The following applies: read-out: JAK2 IC50.
Sequence of hJAK2 (O60674 whole entry): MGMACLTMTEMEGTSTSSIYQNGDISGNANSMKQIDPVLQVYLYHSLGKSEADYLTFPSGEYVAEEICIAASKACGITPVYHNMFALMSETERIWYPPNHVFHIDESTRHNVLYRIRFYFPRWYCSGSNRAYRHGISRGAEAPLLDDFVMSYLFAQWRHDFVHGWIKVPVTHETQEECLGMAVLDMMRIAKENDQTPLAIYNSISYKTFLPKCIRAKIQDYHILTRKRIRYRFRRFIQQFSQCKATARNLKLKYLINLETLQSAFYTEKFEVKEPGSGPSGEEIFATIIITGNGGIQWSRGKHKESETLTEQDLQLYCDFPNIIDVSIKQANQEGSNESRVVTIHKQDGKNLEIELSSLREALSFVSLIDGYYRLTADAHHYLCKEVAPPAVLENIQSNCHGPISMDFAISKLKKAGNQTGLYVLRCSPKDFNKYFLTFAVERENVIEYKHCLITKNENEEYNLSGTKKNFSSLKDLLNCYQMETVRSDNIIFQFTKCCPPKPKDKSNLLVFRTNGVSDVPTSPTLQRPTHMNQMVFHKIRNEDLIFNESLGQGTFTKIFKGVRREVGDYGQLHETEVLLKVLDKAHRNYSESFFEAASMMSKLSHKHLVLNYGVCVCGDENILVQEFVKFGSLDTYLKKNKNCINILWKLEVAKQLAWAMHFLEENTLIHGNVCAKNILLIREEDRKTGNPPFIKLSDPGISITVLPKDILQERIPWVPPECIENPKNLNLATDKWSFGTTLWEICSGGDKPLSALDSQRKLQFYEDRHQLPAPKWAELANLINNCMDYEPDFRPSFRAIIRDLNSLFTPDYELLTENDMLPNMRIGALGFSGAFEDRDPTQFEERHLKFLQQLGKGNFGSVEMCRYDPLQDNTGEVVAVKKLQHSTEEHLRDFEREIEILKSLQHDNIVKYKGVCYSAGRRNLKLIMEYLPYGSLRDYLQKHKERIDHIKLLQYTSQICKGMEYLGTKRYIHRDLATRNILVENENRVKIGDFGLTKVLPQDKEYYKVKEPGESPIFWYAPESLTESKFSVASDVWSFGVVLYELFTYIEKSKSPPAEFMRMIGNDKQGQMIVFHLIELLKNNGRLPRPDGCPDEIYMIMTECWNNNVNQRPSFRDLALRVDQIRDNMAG
In assay [3] the target is TBK1 (Homo sapiens (Human), UniProt Q9UHD2). As to the kind of experiment: TBK1 TR-FRET enzymatic assay.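 Note: phosphorylation of a biotinylated Ser/Thr peptide by purified full-length recombinant TBK1, read by TR-FRET after 240 min at 25 °C, IC50 is the geometric mean of at least four runs.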
Sequence of TBK1 (Q9UHD2 whole entry): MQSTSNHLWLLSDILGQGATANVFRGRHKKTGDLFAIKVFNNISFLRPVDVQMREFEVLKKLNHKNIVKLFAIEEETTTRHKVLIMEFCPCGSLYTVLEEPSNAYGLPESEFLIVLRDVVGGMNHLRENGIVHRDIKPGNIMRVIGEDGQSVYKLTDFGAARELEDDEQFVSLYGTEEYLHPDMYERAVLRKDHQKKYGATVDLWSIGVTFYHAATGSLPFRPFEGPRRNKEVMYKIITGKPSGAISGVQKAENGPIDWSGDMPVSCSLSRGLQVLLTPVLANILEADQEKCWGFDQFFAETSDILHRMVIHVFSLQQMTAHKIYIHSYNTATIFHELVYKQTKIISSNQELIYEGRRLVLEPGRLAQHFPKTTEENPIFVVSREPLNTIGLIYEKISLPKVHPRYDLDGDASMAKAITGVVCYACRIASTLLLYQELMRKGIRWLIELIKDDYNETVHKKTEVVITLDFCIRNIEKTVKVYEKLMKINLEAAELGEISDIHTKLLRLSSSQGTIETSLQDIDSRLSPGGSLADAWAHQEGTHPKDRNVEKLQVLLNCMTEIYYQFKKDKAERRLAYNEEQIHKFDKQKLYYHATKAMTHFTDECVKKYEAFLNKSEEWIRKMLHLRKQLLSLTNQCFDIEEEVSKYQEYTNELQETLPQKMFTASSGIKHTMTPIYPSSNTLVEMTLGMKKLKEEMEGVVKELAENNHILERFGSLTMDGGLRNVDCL
[4] abbreviates: TR-FRET, 2×Km ATP, geometric mean of minimum four determinations.

Where two headings read alike, the source gives them in different places.

As a reminder, the IC50 is the concentration needed to halve the response being measured.

Sequence of IKKε (Q14164 whole entry): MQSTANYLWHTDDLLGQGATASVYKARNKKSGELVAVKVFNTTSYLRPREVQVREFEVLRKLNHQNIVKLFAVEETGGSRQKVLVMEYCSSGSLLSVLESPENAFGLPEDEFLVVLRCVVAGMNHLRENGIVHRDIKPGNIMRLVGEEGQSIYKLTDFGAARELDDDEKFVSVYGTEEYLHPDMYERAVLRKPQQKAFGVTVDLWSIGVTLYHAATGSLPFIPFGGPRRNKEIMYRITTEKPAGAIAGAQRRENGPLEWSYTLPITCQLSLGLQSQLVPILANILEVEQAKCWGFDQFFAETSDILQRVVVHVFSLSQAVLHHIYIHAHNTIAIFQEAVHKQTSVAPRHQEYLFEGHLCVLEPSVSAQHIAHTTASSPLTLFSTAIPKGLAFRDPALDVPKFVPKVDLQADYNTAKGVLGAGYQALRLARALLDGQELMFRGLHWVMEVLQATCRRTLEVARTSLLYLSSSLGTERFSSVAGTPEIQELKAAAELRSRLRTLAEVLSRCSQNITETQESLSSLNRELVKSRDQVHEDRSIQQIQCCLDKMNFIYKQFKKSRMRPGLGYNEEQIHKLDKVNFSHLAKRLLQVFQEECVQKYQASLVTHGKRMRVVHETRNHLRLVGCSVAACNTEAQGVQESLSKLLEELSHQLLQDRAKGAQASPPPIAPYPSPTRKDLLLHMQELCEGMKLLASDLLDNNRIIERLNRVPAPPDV

Regarding `C[C@H](O)C(=O)N1CC[C@H](Oc2ccc(-c3ncnc(Nc4ccc(-c5ccn(C)c(=O)c5)cc4)n3)cc2C#N)[C@H](F)C1` [Example 476, 2-(((3R,4S)-3-fluoro-1-((S)-2-hydroxypropanoyl)piperidin-4-yl)oxy)-5-(4-((4-(1-methyl-2-oxo-1,2-dihydropyridin-4-yl)phenyl)amino)-1,3,5-triazin-2-yl)benzonitrile], the IC50 is 3 nM in assay [1] (setting [4]), not below 1000 nM in assay [2] and 3 nM in assay [3].
On to `N#Cc1cc(-c2ncnc(Nc3ccccc3)n2)ccc1OC1CCOCC1` [Example 79, 5-(4-(phenylamino)-1,3,5-triazin-2-yl)-2-((tetrahydro-2H-pyran-4-yl)oxy)benzonitrile], for which the IC50 is 19 nM in assay [1], more than 1000 nM in assay [2] and 8 nM in assay [3].
With `COc1cc(Nc2ncnc(-c3ccc(O[C@H]4CCN(C(=O)[C@H](C)O)C[C@H]4F)c(C#N)c3)n2)ccn1` [Example 474], the half-inhibitory concentration (IC50) was 10 nM in assay [1] (setting [4]), not below 1000 nM in assay [2] and 6 nM in assay [3].
With `N#Cc1cc(-c2ncnc(Nc3ccc(N4CC(O)C4)nc3)n2)ccc1OC1CCOCC1` [Example 287, 5-(4-((6-(3-hydroxyazetidin-1-yl)pyridin-3-yl)amino)-1,3,5-triazin-2-yl)-2-((tetrahydro-2H-pyran-4-yl)oxy)benzonitrile], the results for the IC50 in assay [1], in assay [2] and in assay [3] were 20 nM, not below 1000 nM and 15 nM, respectively.
For `N#Cc1cc(-c2ncnc(Nc3ccc(C4CCN(C5COC5)CC4)cc3)n2)ccc1OC1CCOCC1` [Example 54, 5-(4-((4-(1-(oxetan-3-yl)piperidin-4-yl)phenyl)amino)-1,3,5-triazin-2-yl)-2-((tetrahydro-2H-pyran-4-yl)oxy)benzonitrile], the IC50 in assay [1] was 4 nM; in assay [2], more than 1000 nM; in assay [3] it was 2 nM.
`N#Cc1cc(-c2ncnc(Nc3ccc(N4CCN(C5COC5)CC4)cc3)n2)ccc1O[C@@H]1CCN(C(=O)C2(O)CC2)C1` [Example 94, (R)-2-((1-(1-hydroxycyclopropanecarbonyl)pyrrolidin-3-yl)oxy)-5-(4-((4-(4-(oxetan-3-yl)piperazin-1-yl)phenyl)amino)-1,3,5-triazin-2-yl)benzonitrile]: the IC50 was 367 nM in assay [1], more than 1000 nM in assay [2] and 173 nM in assay [3].
Turning to `COCCNC(=O)N1CC[C@H](Oc2ccc(-c3ncnc(Nc4ccc(N5CCN(C6COC6)CC5)cc4)n3)cc2C#N)[C@H](F)C1` [Example 427, (3R,4S)-4-(2-cyano-4-(4-((4-(4-(oxetan-3-yl)piperazin-1-yl)phenyl)amino)-1,3,5-triazin-2-yl)phenoxy)-3-fluoro-N-(2-methoxyethyl)piperidine-1-carboxamide], the values for the IC50 in assay [1] (setting [4]), in assay [2] and in assay [3] were 74 nM, not below 1000 nM and 31 nM, respectively.
On to `CC(C)(O)Cn1cc(Nc2ncnc(-c3ccc(O[C@H]4CCN(C(=O)[C@@H](O)CO)C[C@H]4F)c(C#N)c3)n2)cn1` [Example 512, 2-(((3R,4S)-1-((S)-2,3-dihydroxypropanoyl)-3-fluoropiperidin-4-yl)oxy)-5-(4-((1-(2-hydroxy-2-methylpropyl)-1H-pyrazol-4-yl)amino)-1,3,5-triazin-2-yl)benzonitrile], for which the IC50 in assay [1] (setting [4]) is 2 nM; in assay [2] it was not below 1000 nM; in assay [3], 2 nM.
With `C[C@H](O)C(=O)N1CCC[C@H](Oc2ccc(-c3ncnc(Nc4ccc(N5CCN(C6COC6)CC5)cc4)n3)cc2C#N)C1` [Example 128, 2-(((S)-1-((S)-2-hydroxypropanoyl)piperidin-3-yl)oxy)-5-(4-((4-(4-(oxetan-3-yl)piperazin-1-yl)phenyl)amino)-1,3,5-triazin-2-yl)benzonitrile], the IC50 in assay [1] worked out at 177 nM; in assay [2] it was 632 nM; in assay [3], 37 nM.
On the same counts, the results for `C[C@H](O)C(=O)N1CC[C@H](Oc2ccc(-c3ncnc(Nc4ccc5c(c4)NC(=O)C5(C)C)n3)cc2C#N)[C@H](F)C1` [Example 385, 5-(4-((3,3-dimethyl-2-oxoindolin-6-yl)amino)-1,3,5-triazin-2-yl)-2-(((3R,4S)-3-fluoro-1-((8)-2-hydroxypropanoyl)piperidin-4-yl)oxy)benzonitrile] are 3 nM, 888 nM and 2 nM.
Regarding `N#Cc1cc(-c2ncnc(Nc3ccc(N4CCN(C5COC5)CC4)cc3)n2)ccc1O[C@H]1CCN(C(=O)c2ncc[nH]2)C[C@H]1F` [Example 142, 2-(((3R,4S)-3-fluoro-1-(1H-imidazole-2-carbonyl)piperidin-4-yl)oxy)-5-(4-((4-(4-(oxetan-3-yl)piperazin-1-yl)phenyl)amino)-1,3,5-triazin-2-yl)benzonitrile], the IC50 in assay [1] was 4 nM; in assay [2], 174 nM; in assay [3] it was 3 nM.
As to `CC1(C)CN(C(=O)[C@@H]2CCC(=O)N2)C[C@@H](F)[C@H]1Oc1ccc(-c2ncnc(Nc3ccc(N4CCN(C5COC5)CC4)cc3)n2)cc1C#N` [Example 445, 2-(((4S,5R)-5-fluoro-3,3-dimethyl-1-((S)-5-oxopyrrolidine-2-carbonyl)piperidin-4-yl)oxy)-5-(4-((4-(4-(oxetan-3-yl)piperazin-1-yl)phenyl)amino)-1,3,5-triazin-2-yl)benzonitrile], the IC50 is 5 nM in assay [1] (setting [4]), 90 nM in assay [2] and 5 nM in assay [3].
Regarding `COC1CCC(Oc2ccc(-c3ncnc(Nc4ccc(N5CCN(C6COC6)CC5)cc4)n3)cc2C#N)CC1` (stereo not drawn) [Example 122, 2-((4-methoxycyclohexyl)oxy)-5-(4-((4-(4-(oxetan-3-yl)piperazin-1-yl)phenyl)amino)-1,3,5-triazin-2-yl)benzonitrile], the results for the IC50 in assay [1], in assay [2] and in assay [3] were 15 nM, 402 nM and 15 nM, respectively.
Regarding `Cn1cc(Nc2ncnc(-c3ccc(N4CCCC4)c(C#N)c3)n2)cn1` [Example 8, 5-(4-((1-methyl-1H-pyrazol-4-yl)amino)-1,3,5-triazin-2-yl)-2-(pyrrolidin-1-yl)benzonitrile], the IC50 in assay [1] was found to be 19 nM; in assay [2] it was 278 nM; in assay [3], 7 nM.
On to `N#CCCC(=O)N1CC[C@H](Oc2ccc(-c3ncnc(Nc4ccc(N5CCN(C6COC6)CC5)cc4)n3)cc2C#N)[C@H](F)C1` [Example 417, 2-(((3R,4S)-1-(3-cyanopropanoyl)-3-fluoropiperidin-4-yl)oxy)-5-(4-((4-(4-(oxetan-3-yl)piperazin-1-yl)phenyl)amino)-1,3,5-triazin-2-yl)benzonitrile], for which the values for the IC50 in assay [1] (setting [4]), in assay [2] and in assay [3] were 79 nM, 694 nM and 17 nM, respectively.
Consider `C[C@H]1CN(c2ccc(Nc3ncnc(-c4ccc(O[C@H]5CCN(C(=O)c6cnn[nH]6)C[C@H]5F)c(C#N)c4)n3)cc2)CCN1C1COC1` [Example 263, 2-(((3R,4S)-3-fluoro-1-(1H-1,2,3-triazole-5-carbonyl)piperidin-4-yl)oxy)-5-(4-((4-((S)-3-methyl-4-(oxetan-3-yl)piperazin-1-yl)phenyl)amino)-1,3,5-triazin-2-yl)benzonitrile], for which the IC50 in assay [1] came to 3 nM; in assay [2], 158 nM; in assay [3] it was 3 nM.
Regarding `C=CC(=O)Nc1ccc(Nc2ncnc(-c3ccc(OC4CCOCC4)c(C#N)c3)n2)cc1` [Example 39, N-(4-((4-(3-cyano-4-((tetrahydro-2H-pyran-4-yl)oxy)phenyl)-1,3,5-triazin-2-yl)amino)phenyl)acrylamide], the IC50 in assay [1] was 35 nM; in assay [2], more than 1000 nM; in assay [3], 6 nM.
Take `CC1(C)CNC[C@@H](F)[C@H]1Oc1ccc(-c2ncnc(Nc3ccc(N4CCN(C5COC5)CC4)cc3)n2)cc1C#N` [Example 440, 2-(((4S,5R)-5-fluoro-3,3-dimethylpiperidin-4-yl)oxy)-5-(4-((4-(4-(oxetan-3-yl)piperazin-1-yl)phenyl)amino)-1,3,5-triazin-2-yl)benzonitrile]: the IC50 in assay [1] (setting [4]) worked out at 51 nM; in assay [2] it was 110 nM; in assay [3] it was 22 nM.
Regarding `CN1CCN(c2ccc(Nc3ncnc(-c4ccc(O[C@@H]5CCN(C(=O)CO)C5)c(C#N)c4)n3)cc2)CC1` [Example 86, (R)-2-((1-(2-hydroxyacetyl)pyrrolidin-3-yl)oxy)-5-(4-((4-(4-methylpiperazin-1-yl)phenyl)amino)-1,3,5-triazin-2-yl)benzonitrile], the figures for the IC50 in assay [1], in assay [2] and in assay [3] were 4 nM, 459 nM and 8 nM, respectively.
For the compound `COc1cc(Nc2ncnc(-c3ccc(O[C@H]4CCN(C(=O)[C@H](C)O)C[C@H]4F)c(C#N)c3)n2)ccc1N1CCN(C)C[C@@H]1C` [Example 499, 5-(4-((4-((S)-2,4-dimethylpiperazin-1-yl)-3-methoxyphenyl)amino)-1,3,5-triazin-2-yl)-2-(((3R,4S)-3-fluoro-1-((S)-2-hydroxypropanoyl)piperidin-4-yl)oxy)benzonitrile], the IC50 is 1 nM in assay [1] (setting [4]), 79 nM in assay [2] and 2 nM in assay [3].
Turning to `CC(C)n1cc(Nc2ncnc(-c3ccc(O[C@H]4CCN(C(=O)[C@H](C)O)C[C@H]4F)c(C#N)c3)n2)cn1` [Example 350, 2-(((3R,4S)-3-fluoro-1-((S)-2-hydroxypropanoyl)piperidin-4-yl)oxy)-5-(4-((1-isopropyl-1H-pyrazol-4-yl)amino)-1,3,5-triazin-2-yl)benzonitrile], the results for the IC50 in assay [1], in assay [2] and in assay [3] were 5 nM, 231 nM and 3 nM, respectively.
In the same order, the values of `COC1CN(c2ccc(-c3ncnc(Nc4ccc(N5CCN(C6COC6)CC5)cc4)n3)cc2C#N)C1` [Example 269, 2-(3-methoxyazetidin-1-yl)-5-(4-((4-(4-(oxetan-3-yl)piperazin-1-yl)phenyl)amino)-1,3,5-triazin-2-yl)benzonitrile] are 25 nM, 219 nM and 13 nM.

The values above are taken from US10040781B2, “Tank-binding kinase inhibitor compounds” (Gilead Sciences, Inc., priority 2014, dated 2018).
